Measured values: ChEMBL document CHEMBL1155103, “Synthesis and SAR of novel, potent and orally bioavailable benzimidazole inhibitors of poly(ADP-ribose) polymerase (PARP) with a quaternary methylene-amino substituent” (Bioorg Med Chem Lett, 2008)
Calls of active or inactive are those of the source. The rule behind the calls is not given here.

Test system: not listed separately
Test: Oral bioavailability in rat at 5 mg/kg
Type: ADME, organism-based
Settings: in vivo

bioavailability [%]	Structure (SMILES)
26	CC(C)NC(C)(C)c1nc2c(C(N)=O)cccc2[nH]1

Test system: not listed separately
Test: Volume of distribution in rat at 5 mg/kg, iv and 5 mg/kg, po
Type: ADME, organism-based
Settings: in vivo

Vd [L/kg]	Structure (SMILES)
3.7	CC(C)NC(C)(C)c1nc2c(C(N)=O)cccc2[nH]1

Test system: not listed separately
Test: Clearance in dog at 2.5 mg/kg, iv and 2.5 mg/kg, po
Type: ADME, organism-based, Canis lupus familiaris
Settings: in vivo

clearance [mL/min/kg]	Structure (SMILES)
14.2	CC(C)NC(C)(C)c1nc2c(C(N)=O)cccc2[nH]1

Test system: not listed separately
Test: Clearance in mouse at 3 mg/kg, iv and 10 mg/kg, po
Type: ADME, organism-based
Settings: in vivo

clearance [mL/min/kg]	Structure (SMILES)
66.7	CC(C)NC(C)(C)c1nc2c(C(N)=O)cccc2[nH]1

Test system: not listed separately
Test: Volume of distribution in mouse at 3 mg/kg, iv and 10 mg/kg, po
Type: ADME, organism-based
Settings: in vivo

Vd [L/kg]	Structure (SMILES)
2.1	CC(C)NC(C)(C)c1nc2c(C(N)=O)cccc2[nH]1

Test system: not listed separately
Test: Clearance in rat at 5 mg/kg, iv and 5 mg/kg, po
Type: ADME, organism-based
Settings: in vivo

clearance [mL/min/kg]	Structure (SMILES)
85	CC(C)NC(C)(C)c1nc2c(C(N)=O)cccc2[nH]1

Test system: not listed separately
Test: Half life in rat at 5 mg/kg, iv and 5 mg/kg, po
Type: ADME, organism-based
Settings: in vivo

half-life [min]	Structure (SMILES)
60	CC(C)NC(C)(C)c1nc2c(C(N)=O)cccc2[nH]1

Target: T1, Poly [ADP-ribose] polymerase 1 (Homo sapiens, UniProt P09874)
T1 sequence (P09874 whole entry): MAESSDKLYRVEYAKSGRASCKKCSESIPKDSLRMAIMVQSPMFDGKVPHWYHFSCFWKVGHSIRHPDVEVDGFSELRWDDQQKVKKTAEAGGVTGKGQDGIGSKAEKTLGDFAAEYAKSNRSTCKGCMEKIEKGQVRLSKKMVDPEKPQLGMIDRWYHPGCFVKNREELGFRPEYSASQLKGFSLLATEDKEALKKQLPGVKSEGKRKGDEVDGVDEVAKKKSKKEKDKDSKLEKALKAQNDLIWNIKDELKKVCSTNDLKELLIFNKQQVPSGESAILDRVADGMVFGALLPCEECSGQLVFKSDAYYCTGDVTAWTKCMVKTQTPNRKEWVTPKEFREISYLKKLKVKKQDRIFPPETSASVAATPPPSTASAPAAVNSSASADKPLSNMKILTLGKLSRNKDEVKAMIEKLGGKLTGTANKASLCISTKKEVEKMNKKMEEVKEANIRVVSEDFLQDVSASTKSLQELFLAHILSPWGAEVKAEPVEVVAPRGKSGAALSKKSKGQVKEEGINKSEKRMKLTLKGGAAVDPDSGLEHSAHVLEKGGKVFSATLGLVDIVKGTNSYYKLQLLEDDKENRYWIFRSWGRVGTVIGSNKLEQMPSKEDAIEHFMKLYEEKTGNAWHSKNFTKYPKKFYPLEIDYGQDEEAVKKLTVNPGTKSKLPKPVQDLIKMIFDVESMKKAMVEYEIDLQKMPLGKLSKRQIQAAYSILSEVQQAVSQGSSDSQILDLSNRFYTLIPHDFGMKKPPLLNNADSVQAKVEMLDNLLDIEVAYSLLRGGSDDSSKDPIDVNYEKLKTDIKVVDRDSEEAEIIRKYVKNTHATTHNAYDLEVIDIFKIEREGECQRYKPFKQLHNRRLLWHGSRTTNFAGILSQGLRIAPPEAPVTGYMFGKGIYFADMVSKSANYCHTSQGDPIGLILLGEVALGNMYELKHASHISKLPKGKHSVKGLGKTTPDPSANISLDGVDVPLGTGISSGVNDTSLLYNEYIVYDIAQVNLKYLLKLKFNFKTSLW
Test: Inhibition of PARP1
Settings: not given

Ki [nM]	Structure (SMILES)
24	CC(NCC1CC1)c1nc2c(C(N)=O)cccc2[nH]1 (stereo not drawn)
33	CC(NC1CCCC1)c1nc2c(C(N)=O)cccc2[nH]1 (stereo not drawn)
50	CC(N)c1nc2c(C(N)=O)cccc2[nH]1 (stereo not drawn)
19	CC(C)(N)c1nc2c(C(N)=O)cccc2[nH]1
140	CC(NS(=O)(=O)N(C)C)c1nc2c(C(N)=O)cccc2[nH]1 (stereo not drawn)
12	CC(C)NC(C)c1nc2c(C(N)=O)cccc2[nH]1 (stereo not drawn)
10	CCCNC(C)(C)c1nc2c(C(N)=O)cccc2[nH]1
7	CC(C)NC(C)(C)c1nc2c(C(N)=O)cccc2[nH]1
61	CCN(CC)C(C)c1nc2c(C(N)=O)cccc2[nH]1 (stereo not drawn)
32	CC(CCN)c1nc2c(C(N)=O)cccc2[nH]1 (stereo not drawn)
35	CC(NCCc1ccccc1)c1nc2c(C(N)=O)cccc2[nH]1 (stereo not drawn)
41	CCCNC(C)c1nc2c(C(N)=O)cccc2[nH]1 (stereo not drawn)

Continued, molecule first:

Structure (SMILES)	Ki [nM]
NC(=O)c1cccc2[nH]c(C3(N)CC3)nc12	25
CN(CC1CCOC1)C(C)(C)c1nc2cccc(C(N)=O)c2[nH]1 (stereo not drawn)	17
CNC(C)(C)c1nc2cccc(C(N)=O)c2[nH]1	4
NC(=O)c1cccc2[nH]c(C3(N)CCC3)nc12	25
CC(NC1CCCCC1)c1nc2c(C(N)=O)cccc2[nH]1 (stereo not drawn)	53
CC(CCNC1CCCC1)c1nc2c(C(N)=O)cccc2[nH]1 (stereo not drawn)	45
CC(C)(NCCc1ccccc1)c1nc2c(C(N)=O)cccc2[nH]1	37
NC(=O)c1cccc2[nH]c(C3(N)CCc4ccccc4C3)nc12 (stereo not drawn)	18
CN(C1CCC1)C(C)(C)c1nc2c(C(N)=O)cccc2[nH]1	19
CC(C)(c1nc2cccc(C(N)=O)c2[nH]1)N1CCCCC1	15
NC(=O)c1cccc2[nH]c(C3(N)CCCCC3)nc12	50
CC(C)(c1nc2c(C(N)=O)cccc2[nH]1)N1CCCC1	3
NC(=O)c1cccc2[nH]c(C3(N)Cc4ccccc4C3)nc12	58
CC(C)(NC1CCCC1)c1nc2c(C(N)=O)cccc2[nH]1	9
CC(C)(NCC1CC1)c1nc2c(C(N)=O)cccc2[nH]1	7
CN(C)C(C)(C)c1nc2cccc(C(N)=O)c2[nH]1	9
CCNC(=O)NC(C)(C)c1nc2c(C(N)=O)cccc2[nH]1	870

Test system: not listed separately
Test: Clearance in mouse at 5 mg/kg, iv and 10 mg/kg, po
Type: ADME, organism-based
Settings: in vivo

Structure (SMILES)	clearance [mL/min/kg]
CNC(C)(C)c1nc2cccc(C(N)=O)c2[nH]1	70
CC(C)(c1nc2c(C(N)=O)cccc2[nH]1)N1CCCC1	50
CC(C)NC(C)(C)c1nc2c(C(N)=O)cccc2[nH]1	66.7
CC(C)(NCC1CC1)c1nc2c(C(N)=O)cccc2[nH]1	192

Test system: not listed separately
Test: Clearance in monkey at 2.5 mg/kg, iv and 2.5 mg/kg, po
Type: ADME, organism-based, Macaca mulatta
Settings: rhesus monkey, in vivo

clearance [mL/min/kg]	Structure (SMILES)
23.3	CC(C)NC(C)(C)c1nc2c(C(N)=O)cccc2[nH]1

Test system: not listed separately
Test: Half life in monkey at 2.5 mg/kg, iv and 2.5 mg/kg, po
Type: ADME, organism-based, Macaca mulatta
Settings: rhesus monkey, in vivo

half-life [min]	Structure (SMILES)
36	CC(C)NC(C)(C)c1nc2c(C(N)=O)cccc2[nH]1

Test system: B16-F10
Test: Potentiation of temozolomide-induced cytotoxicity in mouse B16F10 cells […] C57BL/6 mouse melanoma model assessed as reduction in tumor volume at 30 mg/kg, po
Type: functional, organism-based
Set-up: dose 30 mg/kg
Settings: not given

Structure (SMILES)	Activity
CC(C)(c1nc2c(C(N)=O)cccc2[nH]1)N1CCCC1	Active
CC(C)NC(C)(C)c1nc2c(C(N)=O)cccc2[nH]1	Active

Test system: not listed separately
Test: Volume of distribution in mouse at 5 mg/kg, iv and 10 mg/kg, po
Type: ADME, organism-based
Settings: in vivo

Structure (SMILES)	Vd [L/kg]
CNC(C)(C)c1nc2cccc(C(N)=O)c2[nH]1	3.5
CC(C)(c1nc2c(C(N)=O)cccc2[nH]1)N1CCCC1	1.8
CC(C)NC(C)(C)c1nc2c(C(N)=O)cccc2[nH]1	2.1
CC(C)(NCC1CC1)c1nc2c(C(N)=O)cccc2[nH]1	13.3

Target: T1, Poly [ADP-ribose] polymerase 1
Test: Inhibition of PARP1 in cell based assay
Settings: not given

Structure (SMILES)	EC50 [nM]
CNC(C)(C)c1nc2cccc(C(N)=O)c2[nH]1	1.3
CC(C)(NCCc1ccccc1)c1nc2c(C(N)=O)cccc2[nH]1	9
CCCNC(C)(C)c1nc2c(C(N)=O)cccc2[nH]1	3
CC(C)(c1nc2cccc(C(N)=O)c2[nH]1)N1CCCCC1	3.1
CC(C)(c1nc2c(C(N)=O)cccc2[nH]1)N1CCCC1	0.9
CC(C)NC(C)(C)c1nc2c(C(N)=O)cccc2[nH]1	2
CC(C)(NC1CCCC1)c1nc2c(C(N)=O)cccc2[nH]1	4
CC(C)(NCC1CC1)c1nc2c(C(N)=O)cccc2[nH]1	2
CN(C)C(C)(C)c1nc2cccc(C(N)=O)c2[nH]1	1.8

Test system: not listed separately
Test: AUC in dog at 2.5 mg/kg, po
Type: ADME, organism-based, Canis lupus familiaris
Set-up: dose 2.5 mg/kg, route oral
Settings: plasma

AUC [µM·h]	Structure (SMILES)
6.07	CC(C)NC(C)(C)c1nc2c(C(N)=O)cccc2[nH]1

Test system: not listed separately
Test: Volume of distribution in dog at 2.5 mg/kg, iv and 2.5 mg/kg, po
Type: ADME, organism-based, Canis lupus familiaris
Settings: in vivo

Vd [L/kg]	Structure (SMILES)
2.9	CC(C)NC(C)(C)c1nc2c(C(N)=O)cccc2[nH]1

Test system: not listed separately
Test: AUC in rat at 5 mg/kg, po
Type: ADME, organism-based
Set-up: dose 5 mg/kg, route oral
Settings: plasma

AUC [µM·h]	Structure (SMILES)
0.74	CC(C)NC(C)(C)c1nc2c(C(N)=O)cccc2[nH]1

Test system: not listed separately
Test: AUC in monkey at 2.5 mg/kg, po
Type: ADME, organism-based, Macaca mulatta
Set-up: dose 2.5 mg/kg, route oral
Settings: rhesus monkey, plasma

AUC [µM·h]	Structure (SMILES)
0.65	CC(C)NC(C)(C)c1nc2c(C(N)=O)cccc2[nH]1

Test system: not listed separately
Test: AUC in mouse at 10 mg/kg, po
Type: ADME, organism-based
Set-up: dose 10 mg/kg, route oral
Settings: plasma

Structure (SMILES)	AUC [µM·h]
CNC(C)(C)c1nc2cccc(C(N)=O)c2[nH]1	8.64
CC(C)(c1nc2c(C(N)=O)cccc2[nH]1)N1CCCC1	6.33
CC(C)NC(C)(C)c1nc2c(C(N)=O)cccc2[nH]1	5.78
CC(C)(NCC1CC1)c1nc2c(C(N)=O)cccc2[nH]1	3.38

Test system: not listed separately
Test: Oral bioavailability in dog at 2.5 mg/kg
Type: ADME, organism-based, Canis lupus familiaris
Settings: in vivo

bioavailability [%]	Structure (SMILES)
70.5	CC(C)NC(C)(C)c1nc2c(C(N)=O)cccc2[nH]1

Test system: not listed separately
Test: Half life in mouse at 3 mg/kg, iv and 10 mg/kg, po
Type: ADME, organism-based
Settings: in vivo

half-life [min]	Structure (SMILES)
36	CC(C)NC(C)(C)c1nc2c(C(N)=O)cccc2[nH]1

Test system: not listed separately
Test: Half life in dog at 2.5 mg/kg, iv and 2.5 mg/kg, po
Type: ADME, organism-based, Canis lupus familiaris
Settings: in vivo

half-life [min]	Structure (SMILES)
168	CC(C)NC(C)(C)c1nc2c(C(N)=O)cccc2[nH]1

Test system: not listed separately
Test: Oral bioavailability in mouse at 10 mg/kg
Type: ADME, organism-based
Settings: in vivo

Structure (SMILES)	bioavailability [%]
CNC(C)(C)c1nc2cccc(C(N)=O)c2[nH]1	85
CC(C)(c1nc2c(C(N)=O)cccc2[nH]1)N1CCCC1	52
CC(C)NC(C)(C)c1nc2c(C(N)=O)cccc2[nH]1	82
CC(C)(NCC1CC1)c1nc2c(C(N)=O)cccc2[nH]1	100

Test system: not listed separately
Test: Oral bioavailability in monkey at 2.5 mg/kg
Type: ADME, organism-based, Macaca mulatta
Settings: rhesus monkey, in vivo

bioavailability [%]	Structure (SMILES)
12.6	CC(C)NC(C)(C)c1nc2c(C(N)=O)cccc2[nH]1

Test system: not listed separately
Test: Half life in mouse at 5 mg/kg, iv
Type: ADME, organism-based
Set-up: dose 5 mg/kg, route intravenous
Settings: in vivo

Structure (SMILES)	half-life [min]
CNC(C)(C)c1nc2cccc(C(N)=O)c2[nH]1	36
CC(C)(c1nc2c(C(N)=O)cccc2[nH]1)N1CCCC1	24
CC(C)NC(C)(C)c1nc2c(C(N)=O)cccc2[nH]1	36
CC(C)(NCC1CC1)c1nc2c(C(N)=O)cccc2[nH]1	48

Test system: not listed separately
Test: Volume of distribution in monkey at 2.5 mg/kg, iv and 2.5 mg/kg, po
Type: ADME, organism-based, Macaca mulatta
Settings: rhesus monkey, in vivo

Vd [L/kg]	Structure (SMILES)
1.1	CC(C)NC(C)(C)c1nc2c(C(N)=O)cccc2[nH]1
